The series in a line: Human HepG2 cell viability assay in 384 well format. Format: toxicity, cell-based. On the set-up: dose 125 nL, time 70.5 hour; concentration not given beside the values. Particulars: HepG2 cells, read-out: Inhibition.

Consider `Cc1nnsc1C(=O)N(C)Cc1nc(-c2ccccn2)no1`, for which the cytotoxicity at 70.5 h was -2.75%.

Turning to `Cn1ncc2c(N3CCS(=O)(=O)CC3)nc(-c3cccnc3)nc21`, the cytotoxicity at 70.5 h is 6.33%.

For the compound `Cc1cccc(NC(=O)N2CCOCC(CN(C)C)C2)c1C` (configuration not stated), the cytotoxicity at 70.5 h was -6.8%.

Take `CN[C@@H](C)C(=O)N(Cc1cccc(C)c1)Cc1ccccc1OC`: the cytotoxicity at 70.5 h turned out to be 14.5%.

For `COCCN(Cc1cccnc1)c1nc(C)nc2oc(C)nc12`, the cytotoxicity at 70.5 h is -5.28%.

Take `C[C@@H]1CN(C(=O)c2nc3ccc(Cl)cn3c2-c2ncc[nH]2)C[C@H](C)O1`: the cytotoxicity at 70.5 h is -14.7%.

With `CCN(CC)C(=O)c1ccc(Cl)c(NC(=O)c2cc[nH]n2)c1`, the cytotoxicity at 70.5 h was 13.3%.

In the case of `CCC[C@@H]1CN(S(=O)(=O)c2ccc(OC)c(OC)c2)C[C@H]1NC(C)=O`, the cytotoxicity at 70.5 h is 6.19%.

On to `COCC[C@]1(O)CCN(C(=O)CCc2cnn(C)c2)C[C@H]1C`, for which the cytotoxicity at 70.5 h is -7.34%.

Take `Cc1ccc(-c2cn[nH]c2C2CCCN(c3ncccn3)C2)cc1` (configuration not stated): the cytotoxicity at 70.5 h amounted to 22.7%.

As for `Cc1cc(CN(C)C(C(=O)O)c2cccc(C(F)(F)F)c2)on1` (configuration not stated), the cytotoxicity at 70.5 h was -7.95%.

`COc1ccc2[nH]c3c(c2c1)CN(c1cc(NCCO)nc(N)n1)CC3`: the cytotoxicity at 70.5 h was -3.57%.

For the compound `O=C(Nc1ccc(-c2ccccc2)cc1)N1C[C@@H]2CNC[C@]2(C(=O)O)C1`, the cytotoxicity at 70.5 h is -9.81%.

Consider `Cc1nc(CC(=O)N2CCCC2c2nc(-c3ccccc3)no2)cs1` (configuration not stated), for which the cytotoxicity at 70.5 h is -3.06%.

Turning to `CCCNCc1ccc(-c2ccnc3[nH]ccc23)cc1`, the cytotoxicity at 70.5 h was determined as 29.1%.

As for `CN(Cc1ccccc1-n1cccn1)C[C@@H]1CCCN2CCCC[C@H]12`, the cytotoxicity at 70.5 h was -8.12%.

As for `CCCc1nccn1-c1ccncc1`, the cytotoxicity at 70.5 h was -5.45%.

Consider `Cc1nn(C)c(C)c1CCC(=O)N1CCN(CCn2cncn2)CC1`, for which the cytotoxicity at 70.5 h is 14.9%.

Consider `Cc1ccc(CCNC(=O)Cn2nc(C)n(Cc3ccccc3)c2=O)o1`, for which the cytotoxicity at 70.5 h was 19.8%.

As for `CC(CNC(=O)c1cc(Cn2cnc3ccccc32)[nH]n1)N1CCCC1` (configuration not stated), the cytotoxicity at 70.5 h is -7.82%.

On to `Cc1c[nH]c(CN2CCC3(CCCN(Cc4ccc(F)c(F)c4)C3)C2)n1` (configuration not stated), for which the cytotoxicity at 70.5 h was found to be 0.269%.

Regarding `CC(C)S(=O)(=O)N1CCOC(CCc2ccccc2)C1` (configuration not stated), the cytotoxicity at 70.5 h is -8.39%.

As for `CCCn1ccnc1CN1CCCC(O)(CN2CCCC2)C1` (configuration not stated), the cytotoxicity at 70.5 h was -2.63%.

`CC(C)C1CN(c2cnccn2)CCC(=O)N1Cc1ccc(F)cc1` (configuration not stated): the cytotoxicity at 70.5 h was -0.619%.

In the case of `Cc1cccc(=O)n1CCC(=O)N1CC[C@](C)(O)[C@H](C)C1`, the cytotoxicity at 70.5 h is -9.5%.

For the compound `Cc1ccc(F)cc1-n1c(COC(C)C)n[nH]c1=O`, the cytotoxicity at 70.5 h is -5.58%.

In the case of `CC(C)Cc1cc(C(=O)N2CCC(Oc3cccnc3)CC2)n(C)n1`, the cytotoxicity at 70.5 h was -8.18%.

As to `CNS(=O)(=O)c1ccc(CN2CCCC2c2ccc(F)cc2)cc1` (configuration not stated), the cytotoxicity at 70.5 h is -5.9%.

With `Cc1ccc2[nH]c(CN(C)c3cc(CN)nc(C)n3)nc2c1`, the cytotoxicity at 70.5 h is 0.934%.

As for `CCc1nnc(CN(C)Cc2cccc(C(=O)Nc3ccnn3C)c2)o1`, the cytotoxicity at 70.5 h was 1.53%.

As to `CN1CCC(O)(CNC(=O)c2cc(COc3cccc(F)c3)[nH]n2)CC1`, the cytotoxicity at 70.5 h is -6.87%.

Consider `Cc1nc(N)ncc1C(=O)N1CCCC(CCc2ccccc2F)C1` (configuration not stated), for which the cytotoxicity at 70.5 h came out at 17%.

On to `O=C(C1CCCCO1)N1CCc2ncnc(NCCO)c2CC1` (configuration not stated), for which the cytotoxicity at 70.5 h was -2.71%.

Take `CCOc1ccc(C(=O)N2CCCC(c3nccn3C)C2)cc1OCC` (configuration not stated): the cytotoxicity at 70.5 h was -5.34%.

On to `CCc1nn(C)c(Cl)c1CN1C[C@@H](NC(=O)N(C)C)[C@H](C(C)C)C1`, for which the cytotoxicity at 70.5 h is -5.68%.

`COc1ccc(F)c(F)c1CN1CC(=O)N(c2ccccc2C)CC1C` (configuration not stated): the cytotoxicity at 70.5 h is -11.4%.

Take `Cc1cc2[nH]c(CN3CCOC(C(F)(F)F)C3)cc(=O)n2n1` (configuration not stated): the cytotoxicity at 70.5 h was 17.8%.

Regarding `Cc1cc2nc(C(C)C)cc(NC(C)c3nncn3C3CCCC3)n2n1` (configuration not stated), the cytotoxicity at 70.5 h was -11.7%.

Turning to `COc1cccc2c1OCCCN(c1nc(C)nc3c1CCNCC3)C2`, the cytotoxicity at 70.5 h was -5.98%.

Take `O=C(NCC1=CCCCC1)C(c1cccnc1)N1CCCC1` (configuration not stated): the cytotoxicity at 70.5 h was determined as 31.3%.

For `CCn1c(C2CCN(C(=O)c3cc(C4CC4)on3)CC2)nn(C)c1=O`, the cytotoxicity at 70.5 h is -6.56%.

Consider `CCc1nc2c(c(NC3CC3)n1)CCN(C(=O)N1CCN(C)CC1)CC2`, for which the cytotoxicity at 70.5 h was -19.1%.

Turning to `Cc1cccc2c(CCNC(=O)[C@H](N)c3ccccc3)c[nH]c12`, the cytotoxicity at 70.5 h is -17.6%.

Turning to `Cc1cc(-n2nc(C3CC3)nc2-c2csnn2)ccn1`, the cytotoxicity at 70.5 h was -10.1%.

Take `CC(C)(O)CCc1ccc(C(=O)NCCC2CCCOC2)cc1` (configuration not stated): the cytotoxicity at 70.5 h was -0.926%.

For `CN(Cc1n[nH]c2c1CCCCC2)C(=O)c1cc(-c2cccn2C)n[nH]1`, the cytotoxicity at 70.5 h is -5.14%.

Turning to `NC(=O)NCCC(=O)N1CCC(c2cc(Cc3ccccc3)n[nH]2)CC1`, the cytotoxicity at 70.5 h was -6.87%.

As for `CC1=C(C(=O)NCCc2n[nH]c3c2CCCC3)C(C)NC(=O)N1` (configuration not stated), the cytotoxicity at 70.5 h is 14.6%.

In the case of `O=C(NC1CCCN(CCCc2ccccc2)C1)C1=CCCCC1` (configuration not stated), the cytotoxicity at 70.5 h is -0.678%.

Take `CN(C)CCC1CCCCN1Cc1cnc(-c2ccccn2)nc1` (configuration not stated): the cytotoxicity at 70.5 h is -3.63%.

As to `Cc1ncsc1C(=O)N1CCn2nc(CN3CCSCC3)cc2C1`, the cytotoxicity at 70.5 h was -1.17%.

`c1ccc(CCN2CCN(c3ncnc4[nH]ccc34)CC2)cc1`: the cytotoxicity at 70.5 h is -3.03%.

As for `CC(C)CCN1CC2(CCCN(C(=O)CNC(=O)N(C)C)C2)CCC1=O` (configuration not stated), the cytotoxicity at 70.5 h is -10.1%.

As for `CC(C)=CCN1CCN(Cc2cc(C)n[nH]2)CC1CCO` (configuration not stated), the cytotoxicity at 70.5 h came out at 4.87%.

For the compound `CCC(=O)N1Cc2nnc(C3CCOCC3)n2C(Cc2c[nH]cn2)C1` (configuration not stated), the cytotoxicity at 70.5 h is -7.01%.

As for `c1ccc2sc(N3CCN(c4ncnc5c4CCC5)CC3)nc2c1`, the cytotoxicity at 70.5 h was 13.8%.

Regarding `COCCN(C)C(=O)c1ccccc1-n1cccn1`, the cytotoxicity at 70.5 h is 5.05%.

Consider `COC(=O)N1CCCCC1C(=O)N1CCCN(c2ccnc(C)c2)CC1` (configuration not stated), for which the cytotoxicity at 70.5 h was -7.79%.

As for `COc1cc(-c2nccn2C(C)CCn2cccn2)cc2c1OCO2` (configuration not stated), the cytotoxicity at 70.5 h came out at 1.97%.

Take `Cc1cc(NCCSc2nccn2C)n2nc(C)c(C)c2n1`: the cytotoxicity at 70.5 h was -4.55%.

For `O=c1cc(CN2CCCCC2c2cccc(F)c2)[nH]c2ncnn12` (configuration not stated), the cytotoxicity at 70.5 h was -10.8%.

For `O=c1c2cccc(Cl)c2ncn1C1CCNC1` (configuration not stated), the cytotoxicity at 70.5 h was -10.4%.

Take `CSCCC(O)C(=O)N1CCCN(Cc2ccc(F)cc2)CC1` (configuration not stated): the cytotoxicity at 70.5 h is 8.69%.

In the case of `Cc1cccc2[nH]c(C3CCCN(Cc4ccccc4C(=O)O)C3)nc12` (configuration not stated), the cytotoxicity at 70.5 h was determined as 8.18%.

On to `c1ccc(CN(Cc2cccc3cnccc23)CC2CCCO2)nc1` (configuration not stated), for which the cytotoxicity at 70.5 h was -7.22%.

As for `C[C@@H]1CN(CCC(=O)N(C)Cc2ccccc2)C[C@@]1(O)C1CCC1`, the cytotoxicity at 70.5 h is -7.64%.

On to `CN(Cc1cccnc1)c1nccc(N2CCN[C@H]3CS(=O)(=O)C[C@H]32)n1`, for which the cytotoxicity at 70.5 h was -3.96%.

For the compound `COc1cccc(N2CCN(Cc3ccc4ccn(C)c4c3)CC2=O)c1`, the cytotoxicity at 70.5 h was -5.61%.

On to `CN(C)C(C(=O)N1CC(c2ccccn2)C1)c1ccc2c(c1)OCO2` (configuration not stated), for which the cytotoxicity at 70.5 h was -3.16%.

Turning to `COc1ccccc1OCc1cc(C(=O)N2CCOCC2CO)n[nH]1` (configuration not stated), the cytotoxicity at 70.5 h is -5.23%.

Turning to `COc1cc(Oc2cnc3ccccc3n2)ccc1CN1CCCC1`, the cytotoxicity at 70.5 h is -3.39%.

Take `CC(=O)N1C[C@H]2CNC[C@@]2(C(=O)NCCCOc2cccnc2)C1`: the cytotoxicity at 70.5 h stood at 20%.

In the case of `C[C@@H]1CN(S(=O)(=O)N2CCCC2)CC[C@@]1(O)C1CCOCC1`, the cytotoxicity at 70.5 h is -14%.

For `N#Cc1c(N)nc2c(c1-c1c[nH]nc1C1CCCCC1)CNCC2`, the cytotoxicity at 70.5 h was found to be 18.5%.

On to `O=c1cc(N2CCOCC2)cnn1CCc1ccc(F)cc1`, for which the cytotoxicity at 70.5 h was -1.15%.

In the case of `CCC(=O)c1ccc(OCC(=O)N(C)C(C)c2ccon2)cc1` (configuration not stated), the cytotoxicity at 70.5 h was -13.2%.

Turning to `O=C1NCCCC[C@@H]1Nc1ccc(-c2nc(C3CC3)no2)cn1`, the cytotoxicity at 70.5 h was -2.61%.

Take `C=Cc1ccc(C(=O)NC2CCCc3nc(N(C)C)ncc32)cc1` (configuration not stated): the cytotoxicity at 70.5 h was determined as 16.1%.

For `Cc1cccc(-c2nc3cc(S(=O)(=O)N4CCCC4)ccc3n2C)n1`, the cytotoxicity at 70.5 h is -10.3%.

Consider `Cn1nc(C2CC2)c2c1NC(=O)CC2c1ccc(CN2CCCCC2)s1` (configuration not stated), for which the cytotoxicity at 70.5 h is -3.05%.

Regarding `COc1ccc(-c2ccnc(N)c2)c(C)c1`, the cytotoxicity at 70.5 h was -15.9%.

As to `CS(=O)(=O)N1CCc2[nH]cnc2C12CCN(C(=O)c1cccnc1)CC2`, the cytotoxicity at 70.5 h is -0.221%.

For `O=S1(=O)C[C@@H]2[C@H](C1)N(Cc1ncc[nH]1)CCN2Cc1cccnc1`, the cytotoxicity at 70.5 h is -3.77%.

With `CC(C)CCn1cc(C(C(=O)O)N2CCCN(C3CCCC3)CC2)cn1` (configuration not stated), the cytotoxicity at 70.5 h is -9.63%.

In the case of `Cc1ccsc1CN1CCC(n2cc(C(O)c3ccccc3)nn2)CC1` (configuration not stated), the cytotoxicity at 70.5 h was -8.81%.

As for `CCNc1ncc(C(=O)NCc2ccc(F)c(C(F)(F)F)c2)cn1`, the cytotoxicity at 70.5 h is 20.6%.

Consider `CCc1nc(NCCc2c(C)nn(CC)c2C)c2cnn(C)c2n1`, for which the cytotoxicity at 70.5 h is -9.28%.

For the compound `Cc1nnc(SCC(=O)NCC(c2ccccc2Cl)N(C)C)s1` (configuration not stated), the cytotoxicity at 70.5 h was -7.07%.

Turning to `Cn1cc(CN2CCC(CCC(=O)NCc3ccc(F)cc3)CC2)cn1`, the cytotoxicity at 70.5 h was 4.72%.

Regarding `Cc1ccc(CN2CCN(c3ncccc3C(N)=O)CC2CCO)cc1` (configuration not stated), the cytotoxicity at 70.5 h was -2.3%.

`CCn1cc(CN2CCC(N3CCC(O)CC3)CC2)cc1C#N`: the cytotoxicity at 70.5 h is -5.22%.

Turning to `Fc1ccc(Cn2ncc3c2CN(c2noc(C4CC4)n2)C3)cc1`, the cytotoxicity at 70.5 h was -3.43%.

As to `O=C(O)C1(Oc2ccccc2)CCN(c2ccncc2)CC1`, the cytotoxicity at 70.5 h is -2.23%.

For the compound `CN(C)[C@H]1CCCCN(C(=O)c2cccc(-c3cccc(F)c3)c2)C1`, the cytotoxicity at 70.5 h was -4.14%.

For `CC(=O)Nc1ccc(CNC(=O)CNCc2nnc(C)o2)cc1`, the cytotoxicity at 70.5 h was determined as 2.3%.

For `CCNC(=O)[C@@H]1C[C@H](N)CN1C1CCN(c2ccccc2OC)CC1`, the cytotoxicity at 70.5 h was -3.8%.

Regarding `CC(=O)c1ccc(C(=O)N2CCC(c3cc(O)nc(C)n3)CC2)s1`, the cytotoxicity at 70.5 h was -10.9%.
